Laboratory results as given in patent publication US9125913B2, “Bcl-2-selective apoptosis-inducing agents for the treatment of cancer and immune diseases” (AbbVie Inc., priority 2008, dated 2015).

test system: GST-Bcl-2; assay: TR-FRET binding assay, Bcl-2; conditions: TR-FRET Ki values
Outline: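 Compounds serially diluted in DMSO from 50 μM (2× starting concentration, 10% DMSO), mixed with GST-tagged protein, F-Bak peptide probe and Tb-labeled antibody, incubated 3 h at room temperature.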

| Structure (SMILES) | Binding selectivity ratio (Bcl-XL Ki/Bcl-2 Ki) |
| --- | --- |
| CC1(C)CCC(CN2CCN(c3ccc(C(=O)NS(=O)(=O)c4ccc(NCC5CCS(=O)(=O)C5)c([N+](=O)[O-])c4)c(Oc4ccc5[nH]ccc5c4)c3)CC2)=C(c2ccc(Cl)cc2)C1 (stereo not shown) [EXAMPLE 275, 4-(4-{[2-(4-chlorophenyl)-4,4-dimethylcyclohex-1-en-1-yl]methyl}piperazin-1-yl)-N-[(4-{[(1,1-dioxidotetrahydrothien-3-yl)methyl]amino}-3-nitrophenyl)sulfonyl]-2-(1H-indol-5-yloxy)benzamide] | >6832.4 |
| CC1(C)CCC(CN2CCN(c3ccc(C(=O)NS(=O)(=O)c4ccc(NC5CCS(=O)(=O)C5)c([N+](=O)[O-])c4)c(Oc4ccc5[nH]ccc5c4)c3)CC2)=C(c2ccc(Cl)cc2)C1 (stereo not shown) [EXAMPLE 276, 4-(4-{[2-(4-chlorophenyl)-4,4-dimethylcyclohex-1-en-1-yl]methyl}piperazin-1-yl)-N-({4-[(1,1-dioxidotetrahydrothien-3-yl)amino]-3-nitrophenyl}sulfonyl)-2-(1H-indol-5-yloxy)benzamide] | 2650.8 |
| CC1(C)CCC(CN2CCN(c3ccc(C(=O)NS(=O)(=O)c4ccc(NCC5CCOCC5)c(C(F)(F)F)c4)c(Oc4ccc5[nH]ccc5c4)c3)CC2)=C(c2ccc(Cl)cc2)C1 [EXAMPLE 277, 4-(4-{[2-(4-chlorophenyl)-4,4-dimethylcyclohex-1-en-1-yl]methyl}piperazin-1-yl)-2-(1H-indol-5-yloxy)-N-{[4-[(tetrahydro-2H-pyran-4-ylmethyl)amino]-3-(trifluoromethyl)phenyl]sulfonyl}benzamide] | >22.2 |
| CC1(C)CCC(CN2CCN(c3ccc(C(=O)NS(=O)(=O)c4ccc(CCC5OCCO5)c([N+](=O)[O-])c4)c(Oc4ccc5[nH]ccc5c4)c3)CC2)=C(c2ccc(Cl)cc2)C1 [EXAMPLE 278, 4-(4-{[2-(4-chlorophenyl)-4,4-dimethylcyclohex-1-en-1-yl]methyl}piperazin-1-yl)-N-({4-[2-(1,3-dioxolan-2-yl)ethyl]-3-nitrophenyl}sulfonyl)-2-(1H-indol-5-yloxy)benzamide] | >929.4 |
| CC1(C)CCC(CN2CCN(c3ccc(C(=O)NS(=O)(=O)c4ccc(OCC5CCOCC5)c([N+](=O)[O-])c4)c(Oc4ccc5[nH]ccc5c4)c3)CC2)=C(c2ccc(Cl)cc2)C1 [EXAMPLE 279, 4-(4-{[2-(4-chlorophenyl)-4,4-dimethylcyclohex-1-en-1-yl]methyl}piperazin-1-yl)-2-(1H-indol-5-yloxy)-N-{[3-nitro-4-(tetrahydro-2H-pyran-4-ylmethoxy)phenyl]sulfonyl}benzamide] | >6923.2 |
| CC1(C)CCC(CN2CCN(c3ccc(C(=O)NS(=O)(=O)c4ccc(NCCN5CCNC(=O)C5)c([N+](=O)[O-])c4)c(Oc4cccc5[nH]ccc45)c3)CC2)=C(c2ccc(Cl)cc2)C1 [EXAMPLE 280, 4-(4-{[2-(4-chlorophenyl)-4,4-dimethylcyclohex-1-en-1-yl]methyl}piperazin-1-yl)-2-(1H-indol-4-yloxy)-N-[(3-nitro-4-{[2-(3-oxopiperazin-1-yl)ethyl]amino}phenyl)sulfonyl]benzamide] | 1097.2 |
| CN1CC(Nc2ccc(S(=O)(=O)NC(=O)c3ccc(N4CCN(CC5=C(c6ccc(Cl)cc6)CC(C)(C)CC5)CC4)cc3Oc3ccc4[nH]ccc4c3)cc2[N+](=O)[O-])CC1=O (stereo not shown) [EXAMPLE 281, 4-(4-{[2-(4-chlorophenyl)-4,4-dimethylcyclohex-1-en-1-yl]methyl}piperazin-1-yl)-2-(1H-indol-5-yloxy)-N-({4-[(1-methyl-5-oxopyrrolidin-3-yl)amino]-3-nitrophenyl}sulfonyl)benzamide] | 1558.9 |
| CN1CC(Nc2ccc(S(=O)(=O)NC(=O)c3ccc(N4CCN(CC5=C(c6ccc(Cl)cc6)CC(C)(C)CC5)CC4)cc3Oc3ccc4[nH]ccc4c3)cc2[N+](=O)[O-])CCC1=O (stereo not shown) [EXAMPLE 282, 4-(4-{[2-(4-chlorophenyl)-4,4-dimethylcyclohex-1-en-1-yl]methyl}piperazin-1-yl)-2-(1H-indol-5-yloxy)-N-({4-[(1-methyl-6-oxopiperidin-3-yl)amino]-3-nitrophenyl}sulfonyl)benzamide] | 3434.4 |
| CC1(C)CCC(CN2CCN(c3ccc(C(=O)NS(=O)(=O)c4ccc(NN5CCCCC5)c([N+](=O)[O-])c4)c(Oc4cccc5[nH]ccc45)c3)CC2)=C(c2ccc(Cl)cc2)C1 [EXAMPLE 283, 4-(4-{[2-(4-chlorophenyl)-4,4-dimethylcyclohex-1-en-1-yl]methyl}piperazin-1-yl)-2-(1H-indol-4-yloxy)-N-{[3-nitro-4-(piperidin-1-ylamino)phenyl]sulfonyl}benzamide] | >13.9 |
| CC1(C)CCC(CN2CCN(c3ccc(C(=O)NS(=O)(=O)c4ccc(NN5CCCCC5)c([N+](=O)[O-])c4)c(Oc4ccc5[nH]ccc5c4)c3)CC2)=C(c2ccc(Cl)cc2)C1 [EXAMPLE 284, 4-(4-{[2-(4-chlorophenyl)-4,4-dimethylcyclohex-1-en-1-yl]methyl}piperazin-1-yl)-2-(1H-indol-5-yloxy)-N-{[3-nitro-4-(piperidin-1-ylamino)phenyl]sulfonyl}benzamide] | >425.2 |
| Cn1ncc(-c2ccc(Cl)cc2)c1CN1CCN(c2ccc(C(=O)NS(=O)(=O)c3ccc(NCC4CCOCC4)c([N+](=O)[O-])c3)c(Oc3ccc4[nH]ccc4c3)c2)CC1 [EXAMPLE 285, 4-(4-{[4-(4-chlorophenyl)-1-methyl-1H-pyrazol-5-yl]methyl}piperazin-1-yl)-2-(1H-indol-5-yloxy)-N-({3-nitro-4-[(tetrahydro-2H-pyran-4-ylmethyl)amino]phenyl}sulfonyl)benzamide] | >94.4 |
| CC1(C)CCC(CN2CCN(c3ccc(C(=O)NS(=O)(=O)c4ccc(OCC5(C)COC5)c([N+](=O)[O-])c4)c(Oc4ccc5[nH]ccc5c4)c3)CC2)=C(c2ccc(Cl)cc2)C1 [EXAMPLE 286, 4-(4-{[2-(4-chlorophenyl)-4,4-dimethylcyclohex-1-en-1-yl]methyl}piperazin-1-yl)-2-(1H-indol-5-yloxy)-N-({4-[(3-methyloxetan-3-yl)methoxy]-3-nitrophenyl}sulfonyl)benzamide] | >1165.0 |
| CC1(C)CCC(CN2CCN(c3ccc(C(=O)NS(=O)(=O)c4ccc(NCc5cncs5)c([N+](=O)[O-])c4)c(Oc4ccc5[nH]ccc5c4)c3)CC2)=C(c2ccc(Cl)cc2)C1 [EXAMPLE 288, 4-(4-{[2-(4-chlorophenyl)-4,4-dimethylcyclohex-1-en-1-yl]methyl}piperazin-1-yl)-2-(1H-indol-5-yloxy)-N-({3-nitro-4-[(1,3-thiazol-5-ylmethyl)amino]phenyl}sulfonyl)benzamide] | >3730.9 |
| CC1(C)CCC(CN2CCN(c3ccc(C(=O)NS(=O)(=O)c4ccc(OCC5CCOCC5)c([N+](=O)[O-])c4)c(Oc4cccc5[nH]ccc45)c3)CC2)=C(c2ccc(Cl)cc2)C1 [EXAMPLE 289, 4-(4-{[2-(4-chlorophenyl)-4,4-dimethylcyclohex-1-en-1-yl]methyl}piperazin-1-yl)-2-(1H-indol-4-yloxy)-N-{[3-nitro-4-(tetrahydro-2H-pyran-4-ylmethoxy)phenyl]sulfonyl}benzamide] | >5917.7 |
| CC1(C)CCC(c2ccc(Cl)cc2)=C(CN2CCN(c3ccc(C(=O)NS(=O)(=O)c4ccc(NCC5CCOCC5)c([N+](=O)[O-])c4)c(Oc4ccc5[nH]ccc5c4)c3)CC2)C1 [EXAMPLE 290, 4-(4-{[2-(4-chlorophenyl)-5,5-dimethylcyclohex-1-en-1-yl]methyl}piperazin-1-yl)-2-(1H-indol-5-yloxy)-N-({3-nitro-4-[(tetrahydro-2H-pyran-4-ylmethyl)amino]phenyl}sulfonyl)benzamide] | >1808.5 |
| CC1(C)CCC(CN2CCN(c3ccc(C(=O)NS(=O)(=O)c4ccc(NCCC5CCOCC5)c([N+](=O)[O-])c4)c(Oc4ccc5[nH]ccc5c4)c3)CC2)=C(c2ccc(Cl)cc2)C1 [EXAMPLE 291, 4-(4-{[2-(4-chlorophenyl)-4,4-dimethylcyclohex-1-en-1-yl]methyl}piperazin-1-yl)-2-(1H-indol-5-yloxy)-N-({3-nitro-4-[(2-tetrahydro-2H-pyran-4-ylethyl)amino]phenyl}sulfonyl)benzamide] | >1179.1 |
| CC1(C)CCC(CN2CCN(c3ccc(C(=O)NS(=O)(=O)c4ccc(NCCOC(F)(F)F)c([N+](=O)[O-])c4)c(Oc4cccc5[nH]ccc45)c3)CC2)=C(c2ccc(Cl)cc2)C1 [EXAMPLE 292, 4-(4-{[2-(4-chlorophenyl)-4,4-dimethylcyclohex-1-en-1-yl]methyl}piperazin-1-yl)-2-(1H-indol-4-yloxy)-N-[(3-nitro-4-{[2-(trifluoromethoxy)ethyl]amino}phenyl)sulfonyl]benzamide] | >1104.2 |
| COCCOCCNc1ccc(S(=O)(=O)NC(=O)c2ccc(N3CCN(CC4=C(c5ccc(Cl)cc5)CC(C)(C)CC4)CC3)cc2Oc2cccc3[nH]ccc23)cc1[N+](=O)[O-] [EXAMPLE 293, 4-(4-{[2-(4-chlorophenyl)-4,4-dimethylcyclohex-1-en-1-yl]methyl}piperazin-1-yl)-2-(1H-indol-4-yloxy)-N-[(4-{[2-(2-methoxyethoxy)ethyl]amino}-3-nitrophenyl)sulfonyl]benzamide] | 505.1 |
| CC1(C)CCC(CN2CCN(c3ccc(C(=O)NS(=O)(=O)c4ccc(NCCCS(C)(=O)=O)c([N+](=O)[O-])c4)c(Oc4cccc5[nH]ccc45)c3)CC2)=C(c2ccc(Cl)cc2)C1 [EXAMPLE 294, 4-(4-{[2-(4-chlorophenyl)-4,4-dimethylcyclohex-1-en-1-yl]methyl}piperazin-1-yl)-2-(1H-indol-4-yloxy)-N-[(4-{[3-(methylsulfonyl)propyl]amino}-3-nitrophenyl)sulfonyl]benzamide] | 252 |
